In patent publication US11806352B2, “Theobromine for increasing HDL-cholesterol” (UPFIELD EUROPE B.V., priority 2010, dated 2023):
Values joined by “and” are separate entries in the source; they are usually repeats but may differ in a detail not shown here. Equal entries are not always repeated.

How the values were obtained:
[1] = test system: healthy males and females; experiment: Example 2: same intervention study, blood pressure; assay type: in vivo, humans
Protocol: In a randomized controlled intervention study with 153 healthy males and females the effect of drinks containing cocoa, added theobromine or a combination of cocoa and added theobromine was assessed on HDL cholesterol (HDL-C). As a secondary objective the effect of the various drinks on total cholesterol (TC), LDL cholesterol (LDL-C), Triglycerides (TG) and blood pressure (BP) was assessed.
After a run-in period of 2 weeks the subjects consumed for 4 weeks daily (in the morning one hour before breakfast) 200 ml acidified dairy drink as in table 5, with added to that 1) none (control drink), 2) 5.9 g cocoa powder (Acticoa, Barry-Callebaut) containing about 500 mg polyphenols and 150 mg theobromine 3) about 850 mg synthetic theobromine (Fagron) and 4) 5.9 g cocoa powder containing 500 mg polyphenols and 150 mg theobromine plus added thereto about 850 mg synthetic theobromine (Fagron) (in total about 1 g theobromine). The synthetic theobromine used was: theobromine complying with European Pharmacopeia 5.7, as available from Fagron, Waregem, Belgium.
Inclusion criteria: generally healthy men and pre-menopausal women, age 40-70, with a 10-year risk of developing CHD<10%, not on active cholesterol-lowering or anti-hypertensive treatment and non-smoking. Details of the subject characteristics are set out in table 6.
The statistical analysis was done according to a full 2×2 factorial design including interaction of theobromine and cocoa. Gender within treatment and baseline blood lipids were included in the model as covariates. A 2 sided p-value<0.05 was considered significant.

[2] = test system: healthy males and females; experiment: Example 2: randomized placebo-controlled 2 by 2 factorial parallel study, dairy drinks, blood lipid profile; assay type: in vivo, humans
Protocol: In a randomized controlled intervention study with 153 healthy males and females the effect of drinks containing cocoa, added theobromine or a combination of cocoa and added theobromine was assessed on HDL cholesterol (HDL-C). As a secondary objective the effect of the various drinks on total cholesterol (TC), LDL cholesterol (LDL-C), Triglycerides (TG) and blood pressure (BP) was assessed. […] After a run-in period of 2 weeks the subjects consumed for 4 weeks daily (in the morning one hour before breakfast) 200 ml acidified dairy drink as in table 5, with added to that 1) none (control drink), 2) 5.9 g cocoa powder (Acticoa, Barry-Callebaut) containing about 500 mg polyphenols and 150 mg theobromine 3) about 850 mg synthetic theobromine (Fagron) and 4) 5.9 g cocoa powder containing 500 mg polyphenols and 150 mg theobromine plus added thereto about 850 mg synthetic theobromine (Fagron) (in total about 1 g theobromine). The synthetic theobromine used was: theobromine complying with European Pharmacopeia 5.7, as available from […], Belgium. For preparing the test products containing theobromine, theobromine was dissolved in a 1 M NaOH solution to create a theobromine stock solution, containing approximately 170 mg/ml of thebromine. The various drinks used in the trial have been made using the following processing: • mixing of the pectin with all of the sugar • dispersing the pectin/sugar mix with part of the demi water at 80° C. to prepare a pectin slurry • dissolving smp in the remainder of the demi water at a temperature of 40° C. • adding the cream • adding the xanthan gum under vigorous mixing for 15 minutes • adding the pectin slurry • adding sucralose • (depending on the drink: adding the cacao slowly under vigorous mixing) • (depending on the drink: adding the theobromine solution) • adding the sunflower oil • adding the flavours and colorants • acidifying the premix with lactic acid until pH 4.2 Inclusion criteria: generally healthy men and pre-menopausal women, age 40-70, with a 10-year risk of developing CHD<10%, not on active cholesterol-lowering or anti-hypertensive treatment and non-smoking. Details of the subject characteristics are set out in table 6. Venous blood samples were drawn from the antecubital vein in SST II advance BD tubes in fasting condition (morning, before breakfast) for blood lipid profile (HDL-C, LDL-C, total cholesterol (TC), triglycerides, HDL-C being herein high density lipoprotein cholesterol, and LDL-C herein being low density lipoprotein cholesterol). The blood samples were taken twice at baseline and were repeated twice after the end of the intervention period. All measurements were done with standard laboratory techniques. Serum lipid outcomes were done in the Intention to treat (ITT) and Per Protocol (PP) population. The statistical analysis was done according to a full 2×2 factorial design including interaction of theobromine and cocoa. Gender within treatment and baseline blood lipids were included in the model as covariates. A 2 sided p-value<0.05 was considered significant.

Wistar rats [3] = conditions: 700 mg/kg body weight; cited from earlier work
Wistar rats [4] = conditions: rats fed a diet supplemented with 0.3% of theobromine; cited from earlier work
[5] = pair-wise comparison, treatment A = Placebo, 4 weeks
[6] = after 4 weeks, ITT, baseline ratio and gender as covariables
[7] = fasting blood, after 4 weeks daily 200 ml drink, ITT, baseline and gender as covariables

Structure (SMILES): Cn1cnc2c1c(=O)[nH]c(=O)n2C [Theobromine, 2,6-dihydroxy-3,7-dimethylpurine]
- effect on blood pressure ([1]; 4 weeks, vs control): no significant effect
- DBP, Mean ([1]; after 4 weeks, ITT, baseline DBP and gender as covariables): 75.0 mm Hg
- SBP, Mean ([1]; after 4 weeks, ITT, baseline SBP and gender as covariables): 121.2 mm Hg
- DBP, Change (A − B) [1, 5]: −0.20 mm Hg
- SBP, Change (A − B) [1, 5]: 2.55 mm Hg
- HDL-C increase compared to placebo ([2]; 4 weeks): ~10%
- Serum LDL-C decrease compared to placebo ([2]; 4 weeks): about 5%
- Serum LDL-C decrease ([2]; 4 weeks, compared to placebo): 0.18 mmol/L
- increase in ApoA1 concentrations ([2]; 4 weeks, main apoprotein found in HDL particles): 0.11
- Triglyceride, Mean ([2]; after 4 weeks, ITT, baseline and gender as covariables): 1.05 mmol/L
- HDL-C/LDL-C ratio, Mean [2, 6]: 0.52
- HDL-C/non-HDL-C ratio, Mean [2, 6]: 0.43
- Total cholesterol, Mean ([2]; fasting blood, after 4 weeks daily 200 ml drink, ITT n=143, baseline and gender as covariables): 5.82 mmol/L
- HDL-C, Mean [2, 7]: 1.75 mmol/L
- LDL-C, Mean [2, 7]: 3.30 mmol/L
- HDL-C, Change (A − B) [2, 5]: 0.159 mmol/L
- HDL-C/LDL_c ratio, Change (A − B) [2, 5]: 0.12 and 0.117
- HDL-C/non-HDL-C ratio, Change (A − B) [2, 5]: 0.13 and 0.126
- LDL-C, Change (A − B) [2, 5]: -0.184 mmol/L
- Total cholesterol, Change (A − B) [2, 5]: -0.038 mmol/L
- Triglycerides, Change (A − B) [2, 5]: 0.018 mmol/L
- HDL-C, Change (A − B) ([2]; pair-wise comparison, treatment A = Placebo, 4 weeks, listed as theobromine): 0.16 mmol/L
- HDL-cholesterol (Wistar rats [3]): elevated
- LDL-cholesterol (Wistar rats [3]): decreased
- total cholesterol (Wistar rats [3]): decreased
- triglycerides (Wistar rats [3]): decreased
- Serum total cholesterol (Wistar rats [4]): significantly increased
